Laboratory results taken from the NIST ThermoML archive (doi:10.1021/acs.jced.5b00562).
Numbers after ± are expanded uncertainties.

Conditions: for specific volume: Gas, isochoric method; for mass density: Liquid, Vibrating tube method

SMILES: F/C=C(\F)C(F)(F)F [(Z)-1,2,3,3,3-pentafluoro-1-propene]
- specific volume (263.15 K, 135.2 kPa): 0.115 ± 0.005 m3/kg
- specific volume (268.15 K, 138.3 kPa): 0.115 ± 0.005 m3/kg
- specific volume (273.14 K, 141.3 kPa): 0.116 ± 0.005 m3/kg
- specific volume (273.15 K, 202.4 kPa): 0.079 ± 0.005 m3/kg
- specific volume (278.15 K, 144.3 kPa): 0.116 ± 0.005 m3/kg
- specific volume (278.15 K, 207 kPa): 0.079 ± 0.005 m3/kg
- specific volume (282.83 K, 301.1 kPa): 0.054 ± 0.005 m3/kg
- mass density (283.14 K, 12501 kPa): 1378.7 ± 1.9 kg/m3
- specific volume (283.15 K, 211.5 kPa): 0.079 ± 0.005 m3/kg
- mass density (283.15 K, 510 kPa): 1329.6 ± 1.7 kg/m3
- mass density (283.15 K, 604 kPa): 1330.1 ± 1.7 kg/m3
- mass density (283.15 K, 1003 kPa): 1332 ± 1.7 kg/m3
- mass density (283.15 K, 1499 kPa): 1334.5 ± 1.7 kg/m3
- mass density (283.15 K, 1997 kPa): 1336.8 ± 1.7 kg/m3
- mass density (283.15 K, 2500 kPa): 1339.1 ± 1.7 kg/m3
- mass density (283.15 K, 5000 kPa): 1350.2 ± 1.8 kg/m3
- mass density (283.15 K, 7499 kPa): 1360.3 ± 1.8 kg/m3
- mass density (283.15 K, 9998 kPa): 1369.8 ± 1.9 kg/m3
- mass density (283.15 K, 15001 kPa): 1387 ± 2 kg/m3
- mass density (283.15 K, 17501 kPa): 1395 ± 2 kg/m3
- mass density (283.15 K, 20001 kPa): 1402.5 ± 2.1 kg/m3
- mass density (283.15 K, 22497 kPa): 1409.9 ± 2.2 kg/m3
- mass density (283.15 K, 25000 kPa): 1417 ± 2.2 kg/m3
- specific volume (283.16 K, 147.3 kPa): 0.116 ± 0.005 m3/kg
- mass density (283.16 K, 27503 kPa): 1423.9 ± 2.3 kg/m3
- mass density (283.16 K, 29999 kPa): 1430.3 ± 2.4 kg/m3
- mass density (283.16 K, 32498 kPa): 1436.2 ± 2.4 kg/m3
- mass density (283.16 K, 35004 kPa): 1442.4 ± 2.5 kg/m3
- specific volume (287.91 K, 307.5 kPa): 0.054 ± 0.005 m3/kg
- specific volume (288.15 K, 150.2 kPa): 0.116 ± 0.005 m3/kg
- specific volume (288.15 K, 215.6 kPa): 0.079 ± 0.005 m3/kg
- specific volume (292.78 K, 314.1 kPa): 0.054 ± 0.005 m3/kg
- specific volume (293.15 K, 152.7 kPa): 0.116 ± 0.005 m3/kg
- specific volume (293.15 K, 220 kPa): 0.079 ± 0.005 m3/kg
- mass density (293.15 K, 470 kPa): 1293.2 ± 1.6 kg/m3
- mass density (293.15 K, 598 kPa): 1293.9 ± 1.6 kg/m3
- mass density (293.15 K, 1000 kPa): 1296.2 ± 1.6 kg/m3
- mass density (293.15 K, 1500 kPa): 1299.1 ± 1.6 kg/m3
- mass density (293.15 K, 2000 kPa): 1301.9 ± 1.6 kg/m3
- mass density (293.15 K, 2500 kPa): 1304.6 ± 1.6 kg/m3
- mass density (293.15 K, 5000 kPa): 1317.4 ± 1.7 kg/m3
- mass density (293.15 K, 7500 kPa): 1329 ± 1.7 kg/m3
- mass density (293.15 K, 10001 kPa): 1339.8 ± 1.8 kg/m3
- mass density (293.15 K, 12500 kPa): 1349.7 ± 1.8 kg/m3
- mass density (293.15 K, 14999 kPa): 1359 ± 1.9 kg/m3
- mass density (293.15 K, 17500 kPa): 1367.8 ± 1.9 kg/m3
- mass density (293.15 K, 20000 kPa): 1376 ± 2 kg/m3
- mass density (293.15 K, 22500 kPa): 1383.9 ± 2.1 kg/m3
- mass density (293.15 K, 25000 kPa): 1391.4 ± 2.1 kg/m3
- mass density (293.15 K, 27499 kPa): 1398.5 ± 2.2 kg/m3
- mass density (293.15 K, 30000 kPa): 1405.4 ± 2.3 kg/m3
- mass density (293.15 K, 32500 kPa): 1412 ± 2.3 kg/m3
- mass density (293.15 K, 34999 kPa): 1418.5 ± 2.4 kg/m3
- specific volume (297.14 K, 418.9 kPa): 0.04 ± 0.005 m3/kg
- specific volume (298.15 K, 155.7 kPa): 0.116 ± 0.005 m3/kg
- specific volume (298.15 K, 224.3 kPa): 0.079 ± 0.005 m3/kg
- specific volume (298.15 K, 498.5 kPa): 0.032 ± 0.005 m3/kg
- specific volume (298.47 K, 320.7 kPa): 0.054 ± 0.005 m3/kg
- specific volume (303.14 K, 327 kPa): 0.054 ± 0.005 m3/kg
- specific volume (303.14 K, 510.2 kPa): 0.032 ± 0.005 m3/kg
- specific volume (303.15 K, 158.7 kPa): 0.116 ± 0.005 m3/kg
- specific volume (303.15 K, 228.2 kPa): 0.079 ± 0.005 m3/kg
- specific volume (303.15 K, 430 kPa): 0.04 ± 0.005 m3/kg
- mass density (303.15 K, 700 kPa): 1255.3 ± 1.5 kg/m3
- mass density (303.15 K, 1000 kPa): 1257.4 ± 1.5 kg/m3
- mass density (303.15 K, 1500 kPa): 1260.9 ± 1.5 kg/m3
- mass density (303.15 K, 2000 kPa): 1264.3 ± 1.6 kg/m3
- mass density (303.15 K, 7500 kPa): 1296.6 ± 1.7 kg/m3
- mass density (303.15 K, 9999 kPa): 1308.8 ± 1.7 kg/m3
- mass density (303.15 K, 12500 kPa): 1320.1 ± 1.8 kg/m3
- mass density (303.15 K, 20000 kPa): 1349.2 ± 1.9 kg/m3
- mass density (303.15 K, 22501 kPa): 1357.8 ± 2 kg/m3
- mass density (303.15 K, 24999 kPa): 1366 ± 2 kg/m3
- mass density (303.15 K, 27500 kPa): 1374.4 ± 2.1 kg/m3
- mass density (303.16 K, 2499 kPa): 1267.8 ± 1.6 kg/m3
- mass density (303.16 K, 5000 kPa): 1283.2 ± 1.6 kg/m3
- mass density (303.16 K, 14996 kPa): 1330.5 ± 1.8 kg/m3
- mass density (303.16 K, 17500 kPa): 1340.2 ± 1.9 kg/m3
- mass density (303.16 K, 30000 kPa): 1381.8 ± 2.2 kg/m3
- mass density (303.16 K, 32500 kPa): 1388.8 ± 2.2 kg/m3
- mass density (303.16 K, 35000 kPa): 1395.6 ± 2.3 kg/m3
- specific volume (308.12 K, 522.1 kPa): 0.032 ± 0.005 m3/kg
- specific volume (308.14 K, 161.7 kPa): 0.116 ± 0.005 m3/kg
- specific volume (308.14 K, 612.3 kPa): 0.027 ± 0.005 m3/kg
- specific volume (308.15 K, 232.8 kPa): 0.079 ± 0.005 m3/kg
- specific volume (308.15 K, 333.9 kPa): 0.054 ± 0.005 m3/kg
- specific volume (308.15 K, 439 kPa): 0.04 ± 0.005 m3/kg
- specific volume (312.86 K, 236.9 kPa): 0.079 ± 0.005 m3/kg
- specific volume (313.13 K, 533.4 kPa): 0.032 ± 0.005 m3/kg
- specific volume (313.14 K, 627 kPa): 0.027 ± 0.005 m3/kg
- mass density (313.14 K, 7500 kPa): 1262.1 ± 1.6 kg/m3
- mass density (313.14 K, 10000 kPa): 1276.1 ± 1.6 kg/m3
- specific volume (313.15 K, 164.2 kPa): 0.116 ± 0.005 m3/kg
- specific volume (313.15 K, 447.9 kPa): 0.04 ± 0.005 m3/kg
- mass density (313.15 K, 1000 kPa): 1216.2 ± 1.5 kg/m3
- mass density (313.15 K, 1500 kPa): 1220.4 ± 1.5 kg/m3
- mass density (313.15 K, 2008 kPa): 1224.6 ± 1.5 kg/m3
- mass density (313.15 K, 5000 kPa): 1246.4 ± 1.5 kg/m3
- mass density (313.15 K, 12501 kPa): 1288.9 ± 1.7 kg/m3
- mass density (313.15 K, 15000 kPa): 1300.5 ± 1.7 kg/m3
- mass density (313.15 K, 17497 kPa): 1311.3 ± 1.8 kg/m3
- mass density (313.15 K, 20000 kPa): 1321.4 ± 1.8 kg/m3
- mass density (313.15 K, 22500 kPa): 1330.8 ± 1.9 kg/m3
- mass density (313.15 K, 25000 kPa): 1339.7 ± 1.9 kg/m3
- mass density (313.15 K, 27500 kPa): 1348.1 ± 2 kg/m3
- mass density (313.15 K, 30001 kPa): 1356.1 ± 2.1 kg/m3
- mass density (313.15 K, 32500 kPa): 1363.7 ± 2.1 kg/m3
- mass density (313.15 K, 35000 kPa): 1371 ± 2.2 kg/m3
- specific volume (313.16 K, 340.4 kPa): 0.054 ± 0.005 m3/kg
- mass density (313.16 K, 2501 kPa): 1228.3 ± 1.5 kg/m3
- specific volume (318.14 K, 346.9 kPa): 0.054 ± 0.005 m3/kg
- specific volume (318.14 K, 641.3 kPa): 0.027 ± 0.005 m3/kg
- specific volume (318.15 K, 166.8 kPa): 0.116 ± 0.005 m3/kg
- specific volume (318.15 K, 241.3 kPa): 0.079 ± 0.005 m3/kg
- specific volume (318.15 K, 457 kPa): 0.04 ± 0.005 m3/kg
- specific volume (318.23 K, 544.9 kPa): 0.033 ± 0.005 m3/kg
- specific volume (323.14 K, 353.4 kPa): 0.054 ± 0.005 m3/kg
- specific volume (323.14 K, 555.9 kPa): 0.033 ± 0.005 m3/kg
- specific volume (323.14 K, 655.2 kPa): 0.027 ± 0.005 m3/kg
